Results from patent US8598128B2, “Fructosylated puerarin, and preparation method and use thereof” (priority 2010, dated 2013).
In brackets after ≈: the same amount, converted by molar mass.

Legend:
[1] = cited from earlier work; for water solubility compared with puerarin: literature
[2] = Solubility determination at 25° C.
[3] = system: aorta vascular smooth muscle; conditions: compared with puerarin, literature; cited from earlier work
myocardio ischemia mice [4] = test: Heart rate in pituitrin acute myocardial ischemia model; type: in vivo, Sprague-Dawley mice (SD mice); conditions: 50 mg/kg
Source text: (§1) Embodiment 6: […] Pituitrin injection was purchased from Nanjing Xinbai Pharmaceutical Co., Ltd., normal saline injection from Nanjing Xiaoying Pharmaceutical Co., Ltd., and DMSO, PG, and anhydrous ethanol were of chromatographic class. […] The data were presented with, and tested with t. P<0.05 indicates substantial difference, P<0.01 indicates very substantial difference; and P<0.001 indicates extremely substantial difference.

in vivo = conditions: in vivo, 50 mg/kg
Method: Embodiment 5: Metabokinetic Experiment of monofructosyl-β(2,6)-Puerarin in Blood
In HPLC analysis, DIONEX was used, with chromatographic column as Discovery HS C18 ([…], 5 μm), feeding specimen volume 20 μL, column temperature 30° C., the detector was UVD170U, with detection wavelength of 254 nm, flowing phase: A, water, B, chromatographic class methanol, A:B=80:20, at flow rate of 1 mL/min.
Sprague-Dawley mice (SD mice), with weight of 180-220 g, male and female in half, provided by Medical Experiment Center of Nantong University, with production permit No.: SCXK (Su) 20080010.
SD mice were randomly divided into 2 groups of 5 each, fasting for 12 hours before experiment. Puerarin and monofructosyl-β(2,6)-puerarin were respectively dissolved in 20% 1,2-PG normal saline, and injected into mouse caudal vein at a dosage of 50 mg/kg. After injection, at t=0 min, 4 min, 7 min, 17 min, 40 min, 60 min, 120 min and 180 min, 0.5 mL of blood was taken from orbit and put into centrifugal tubes treated with liquaemin, then it was immediately separated by centrifuging at 3000 rpm for 15 min, to separate out plasma for analysis.
Plasma of 100 μL was precisely taken and put into test tube, and 400 μL of methanol sedimented protein was added, they were mixed on vortex mixer for 5 min, then centrifuged at 10000 rpm for 10 min, and the supernatant was used for HPLC analysis.
The plasma concentration of the puerarin and monofructosyl-β(2,6)-puerarin specimens prepared as per 3.2 was obtained by calculation with external reference method. The data obtained were analyzed using pharmacokinetics statistic software.

[5] = system: human chronmyelogenors leukemia cell strain K562; test: K562 cell toxicity test (MTT); type: cell-based; conditions: 48 h; for OD value: MTT 490 nm
Method: K-562 cells were cultured in an incubator at 37° C. with 5% CO2 saturated humidity in the RPMI-1640 complete culture medium containing inactivated calf serum with volume fraction of 10%, 100 U penicillin and streptomycin. […] For each drug concentration, 6 complex cases were provided. Put back the culture plate into the cell incubator, after 48 h, add 20 μL MTT (5 mg/mL) solution and continue to incubate it in the incubator for 4 h, then each case was added with triple liquid 100 μL, put it overnight to allow the crystal to fully dissolve. Vibrate it with oscillator for 20 min and determine the light absorption at 490 nm with a fully automatic ELISA instrument, and calculate the average suppression rate, suppression rate (%)=(control group A490−test group A490)/control group A490), the experiment was repeated three times. Relevant analysis and Student t tests in Microsoft Excel 2003 were used, and data are presented in X±SD.

myocardio ischemia mice [6] = test: T wave amplitude variation in pituitrin acute myocardial ischemia model; type: in vivo, Sprague-Dawley mice (SD mice); conditions: 50 mg/kg
Source text: as §1

physchem = conditions: 25° C.
[7] = system: human breast cancer cell strain MDA-MB-231; test: MDA-MB-231 cell toxicity test (MTT); type: cell-based; conditions: 48 h; for OD value: MTT 490 nm
Method: MDA-MB-231 cells were cultured in an incubator at 37° C. with 5% CO2 saturated humidity in the RPMI-1640 complete culture medium containing inactivated fetal calf serum with volume fraction of 10%, 100 U penicillin and streptomycin. Take MDA-MB-231 cells in logarithmic phase (primary culture bottle) and discard the culture solution. […] Prepare the suspended solution of cells and adjust the cell concentration with appropriate amount of complete culture medium to 3×10^4/mL. Fed the cells into a tissue culture plate 96, with cell suspended liquid of 180 μL in each case, and put the culture plate into a cell incubator (37° C., 5% CO2) for conventional culture. When cells grew to 50%-70%, add drug liquid of different concentration. […] For DMSO solvent control group, add 20 μL of PBS containing […] and for the blank group, add 20 μL of PBS. For each drug concentration, 6 complex cases were provided. Put back the culture plate into the cell incubator, after 48 h, add 20 μL MTT (5 mg/mL) solution and continue to incubate it in the incubator for 4 h, then remove the supernatant and dry it with tissue, add 200 μL DMSO into each case and vibrate it in the rocker without light for 15 min, to allow the crystal to fully dissolve. Determine the light absorption at 490 nm with a fully automatic ELISA instrument, and calculate the average suppression rate, suppression rate (%)=(control group A490−test group A490)/control group A490), the experiment was repeated three times. Relevant analysis and Student t tests in Microsoft Excel 2003 were used, and data are presented in X±SD.

[8] = literature; cited from earlier work
[9] = both, Sprague-Dawley, mouse, iv

For `O=c1c(-c2ccc(O)cc2)coc2c([C@@H]3O[C@H](CO[C@H]4O[C@H](CO)[C@@H](O[C@H]5O[C@H](CO)[C@@H](O)[C@H](O)[C@H]5O)[C@H](O)[C@H]4O)[C@@H](O)[C@H](O)[C@H]3O)c(O)ccc12` [maltosyl-α-(1,6)-puerarin], the “water solubility compared with puerarin” value [1] is listed as 168 times.

For `O=c1c(-c2ccc(O)cc2)coc2c(C3OC(CO)C(O)C(O)C3O)c(OC3OC(COC4OC(CO)C(O)C(O)C4O)C(O)C(O)C3O)ccc12` (stereo not drawn) [7-O-isomaltoside puerarin], the “water solubility compared with puerarin” value [1] is listed as 100 times.

For `O=c1c(-c2ccc(O)cc2)coc2c([C@@H]3O[C@H](CO[C@H]4O[C@H](CO)[C@@H](O)[C@H](O)[C@H]4O)[C@@H](O)[C@H](O)[C@H]3O)c(O)ccc12` [glucosyl-α-(1, 6)-puerarin], the “water solubility compared with puerarin” value [1] is listed as 14 times.

In the case of `O=c1c(-c2ccc(O)cc2)coc2c([C@@H]3O[C@H](CO[C@]4(CO)O[C@H](CO[C@]5(CO)O[C@H](CO)[C@@H](O)[C@@H]5O)[C@@H](O)[C@@H]4O)[C@@H](O)[C@H](O)[C@H]3O)c(O)ccc12` [bifructosyl-β(2,6)-puerarin], the solubility [2] is reported as 280800 µg/mL (≈ 379 mM) and the “solubility relative to puerarin” value ([2]; puerarin 5.2 g/L) is reported as 54 times.

For “semi-emulsified glycosyl-α-(1,4)-puerarin”, the vasodilatation effect [3] is given as “could produce better vasodilatation effect than puerarin”.

In the case of `O=c1c(-c2ccc(O)cc2)coc2c([C@@H]3O[C@H](CO)[C@@H](O)[C@H](O)[C@H]3O)c(O)ccc12` [Puerarin, 7,4′-dyhydroxy-8-β-D-glucosyl isoflavone], the solubility in water ([1]; background statement) is given as 6240 µg/mL (≈ 15 mM), the Heart rate (myocardio ischemia mice [4]; 5 s) is given as 512 ± 36 time · min^−1 and the Heart rate (myocardio ischemia mice [4]; 10 s) is given as 469 ± 32 time · min^−1. It also gave a Heart rate (myocardio ischemia mice [4]; 15 s) of 437 ± 63 time · min^−1, a Heart rate (myocardio ischemia mice [4]; 30 s) of 411 ± 69 time · min^−1 and a Heart rate (myocardio ischemia mice [4]; 1 min) of 379 ± 85 time · min^−1. For the same molecule, the Heart rate (myocardio ischemia mice [4]; 2 min) was 379 ± 72 time · min^−1, the Heart rate (myocardio ischemia mice [4]; 5 min) was 384 ± 53 time · min^−1 and the Heart rate (myocardio ischemia mice [4]; 10 min) was 434 ± 51 time · min^−1. It also gave a Heart rate (myocardio ischemia mice [4]; Normal) of 484 ± 33 time · min^−1, an MRT inf (in vivo; [9]) of 20.6 min and an MRT last (in vivo; [9]) of 19.7 min. The clearance (in vivo; [9]) was 13 ± 3 mL/min/kg, the half-life (in vivo; [9]) was 17 ± 3.09 min and the “AUC (0-t)” value (in vivo) was 4096.192 ± 973.839 mg/Lxmin. For the same molecule, the Average suppression rate ([5]; 1 μmol/L) was 10.65%, the OD value ([5]; 1 μmol/L) was 0.917 ± 0.031 and the Average suppression rate ([5]; 5 μmol/L) was 7.52%. The OD value ([5]; 5 μmol/L) was 0.949 ± 0.023, the Average suppression rate ([5]; 10 μmol/L) was 9.46% and the OD value ([5]; 10 μmol/L) was 0.929 ± 0.030. For the same molecule, the Average suppression rate ([5]; 20 μmol/L) was 10.68%, the OD value ([5]; 20 μmol/L) was 0.916 ± 0.056 and the Average suppression rate ([5]; 50 μmol/L) was 22.73%. For the same molecule, the OD value ([5]; 50 μmol/L) was 0.793 ± 0.083, the Average suppression rate ([5]; 100 μmol/L) was 30.89% and the OD value ([5]; 100 μmol/L) was 0.709 ± 0.038. For the same molecule, the Average suppression rate ([5]; 150 μmol/L) was 36.65%, the OD value ([5]; 150 μmol/L) was 0.650 ± 0.039 and the Average suppression rate ([5]; 200 μmol/L) was 54.19%. The OD value ([5]; 200 μmol/L) was 0.470 ± 0.027, the “T wave amplitude variation” value (myocardio ischemia mice [6]; 15 s after Pit) was 0.082 ± 0.052 mv and the “T wave amplitude variation” value (myocardio ischemia mice [6]; 30 s after Pit) was 0.114 ± 0.096 mv. For the same molecule, the “T wave amplitude variation” value (myocardio ischemia mice [6]; 1 min after Pit) was 0.118 ± 0.086 mv, the “T wave amplitude variation” value (myocardio ischemia mice [6]; 2 min after Pit) was 0.132 ± 0.096 mv and the “T wave amplitude variation” value (myocardio ischemia mice [6]; 5 min after Pit) was 0.118 ± 0.075 mv. The “T wave amplitude variation” value (myocardio ischemia mice [6]; 10 min after Pit) was 0.074 ± 0.061 mv, the solubility (physchem) was 5200 µg/mL (≈ 12.5 mM) and the Average suppression rate ([7]; 0.5 μmol/L) was 10.68%. The OD value ([7]; 0.5 μmol/L) was 0.632 ± 0.056, the Average suppression rate ([7]; 1 μmol/L) was 11.67% and the OD value ([7]; 1 μmol/L) was 0.624 ± 0.053. The Average suppression rate ([7]; 5 μmol/L) was 12.43%, the OD value ([7]; 5 μmol/L) was 0.619 ± 0.090 and the Average suppression rate ([7]; 10 μmol/L) was 13.77%. It also gave an OD value ([7]; 10 μmol/L) of 0.610 ± 0.039, an Average suppression rate ([7]; 50 μmol/L) of 24.92% and an OD value ([7]; 50 μmol/L) of 0.531 ± 0.066. For the same molecule, the Average suppression rate ([7]; 100 μmol/L) was 33.06%, the OD value ([7]; 100 μmol/L) was 0.473 ± 0.034 and the Average suppression rate ([7]; 150 μmol/L) was 47.47%. The OD value ([7]; 150 μmol/L) was 0.372 ± 0.037, the Average suppression rate ([7]; 200 μmol/L) was 61.91% and the OD value ([7]; 200 μmol/L) was 0.619 ± 0.042.

For `O=c1c(-c2ccc(O)cc2)coc2c([C@@H]3O[C@H](CO)[C@@H](O)[C@H](O)[C@H]3O)c(O[C@@H]3O[C@H](CO)[C@@H](O)[C@H](O)[C@H]3O)ccc12` [7-O-glucoside puerarin], the “water solubility compared with puerarin” value [1] is listed as 18 times, the “mean retaining time (MRT) relative to puerarin” value [8] is listed as 2.8 times and the “plasma half-life (t1/2) relative to puerarin” value [8] is listed as 2 times.
